Values quoted from earlier work in US20100015174A1, “METHOD TO CONTROL DENGUE VIRUSES IN HUMANS BY PICOLINIC ACID AND DERIVATIVES THEREOF” (priority 2008, published 2010).

Tests used:
[1] = system: human aortic endothelial cells; conditions: cited from earlier work
[2] = system: J2 retrovirus; conditions: GG2EE transformed macrophages; cited from earlier work

| Compound | change of reactive oxygen species (ROS) [1] | change of vascular adhesion molecules (VCAM-I) [1] | increase of NAD(P)H levels [1] | J2 retrovirus expression [2] |
| --- | --- | --- | --- | --- |
| O=C(O)c1cccnc1 [Niacin, Nicotinic acid] | > 50% | 80% | 54% |  |
| IFN-gamma: type II (immune) interferon |  |  |  | not affected |
